The subject of one assay is MC3T3-E1 cells. Briefly: Cell proliferation rate by BrdU incorporation. Format: cell-based, murine. Conditions: vs RGD-tethered surfaces at low and high peptide surface densities. On the procedure: Cells were seeded on surfaces in 10% serum for 16 h, and BrdU (3.1 μg/ml) was added for the last 4 h. After washing with DPBS, samples were fixed in 70% cold ethanol for 10 min, denatured in 4 M HC1 for 20 min, neutralized in 50 mM NaCl in 100 mM Tris-HCI (pH 7.4), washed, and blocked with 5% FBS+1% heat-denatured BSA. Cultures were incubated in anti-BrdU antibody (1:1000) and AlexaFluor488-conjugated anti-mouse IgG (1:200). Nuclei were counter-stained with Hoechst dye (1:10,000). Fluorescent images were used to quantify the number of cells positive for BrdU relative to total cell nuclei using an in-house image analysis routine. Ten representative fields were analyzed per well with multiple wells for each surface condition.
In general terms: Incorporation of labelled thymidine or its analogues reports DNA synthesis.

In the next assay the test system is FAK. Briefly: FAK phosphorylation Western blotting on ligand-tethered SAMs. Format: cell-based, murine. As to the method: Cells were detached and gently agitated in serum-free suspension for 45 min to reduce background. Cells were then seeded at 200 cells/mm^2 serum-free for 1 h. Cells were lysed in RIPA buffer (1% Triton X-100, 1% sodium deoxycholate, 0.1% SDS, 150 mM NaCl, 150 mM Tris-HCl (pH 7.2), 350 μg/ml PMSF, 10 μg/ml leupeptin, and 10 μg/ml aprotonin) for 20 min on ice. Samples were pipetted up and down 20 times and centrifuged at 8000 g for 10 min to shear DNA and isolate protein contents. Total protein was quantified using micro-BCA (Pierce). Equal amounts of protein were boiled for 10 min in Laemmli buffer and separated by SDS-PAGE on a 7% gel, transferred to nitrocellulose membranes, and blocked with Blotto (5% nonfat dry milk, 0.20% Tween-20) overnight at 4° C. Membranes were gently rocked in antibodies against FAK and specific phosphorylated FAK tyrosine residues (anti-total FAK at 1 μg/ml, anti-FAK pY397 at 0.35 μg/ml, anti-FAK pY576 at 0.5 μg/ml) for 1 h. After washing with TBS-Tween (20 mM Tris HCl pH 7.6, 137 mM NaCl, 0.1% Tween-20), secondary antibody (biotin-conjugated anti-rabbit IgG; 1:20,000) was added for 1 h, followed by alkaline phosphatase-conjugated anti-biotin antibody (1:10,000) in Blotto. Immunoreactivity was assessed by ECF fluorescent substrate. FAK bands were visualized by a Fuji Image Analyzer and phosphorylation levels normalized to total FAK.
In general terms: A western blot detects proteins with antibodies after separation by electrophoresis.

Assay [1] concerns HFN7.1 monoclonal antibody. The experiment in a line: ELISA with HFN7.1 monoclonal antibody. Conditions: passively adsorbed ligands, various coating concentrations. Type of assay: binding. As to the method:
An ELISA was used to probe for the biological activity of the FNIII7-10 fragment compared to pFN. FNIII7-10 or pFN was adsorbed onto either uncoated or Neutravidin-coated (100 μg/ml) 96-well black U-well Dynex plates at various concentrations for 30 min. Following incubation in blocking buffer (0.25% BSA, 0.1 M EDTA, 2.5% Tween-20, 0.00125% NaN3), HFN7.1 antibody (0.6 μg/ml in blocking buffer) was added for 1 h at 37° C., and, after washing with blocking buffer, surfaces were incubated in alkaline phosphatase-conjugated anti-mouse IgG (0.6 μg/ml) for 1 h at 37° C. Washed surfaces were exposed to 4-methylumbelliferyl phosphate (25 mg/ml in 10 mM diethanolamine, pH 9.5). The resulting fluorescence was quantified using an HTS 7000 Plus plate reader (Perkin Elmer, Foster City, Calif.) at 360 nm excitation and 465 nm emission.
Background: An ELISA detects its analyte on a solid surface through an enzyme-linked reagent.

The subject of another assay is α5β1 integrin. Briefly: Integrin binding by cross-linking/extraction/reversal technique. Format: cell-based, rat. Conditions: equimolar tethered brushes; vs RGD-tethered brushes and serum-exposed titanium. On the procedure: (§1) In vitro evaluation of these engineered titanium surfaces was performed using primary rat bone marrow stromal cells since this heterogeneous population contains osteoprogenitors, and human bone marrow stromal cells are currently used in clinical applications. Cell adhesion was examined using a centrifugation assay that applies a controlled detachment force. To allow direct comparisons between ligand-tethered surfaces, an equimolar ligand density of 0.9 pmol/cm^2 was used; this value represents the highest ligand density that could be ascribed for both surfaces to be equimolar. […] As a complementary test of integrin specificity, integrin binding was quantified using a biochemical cross-linking/extraction/reversal technique.

Assay [2] relates to rat femur segmental defect. The experiment in a line: 8 mm segmental defect in the rat femur, micro-CT bone formation. Conditions: coated PCL scaffolds (20 μg/ml) vs PCL and empty defects; 4 and 12 weeks. Type of assay: in vivo. On the procedure:
The ability of GFOGER peptide (SEQ ID NO:1)-coated polymeric scaffolds to heal critical sized defects was examined. […] A 8 mm segmental defect in the rat femur was used to evaluate bone repair. Three experimental groups were evaluated: (i) empty defect controls, (ii) PCL scaffolds, and (iii) GFOGER peptide (SEQ ID NO:1)-coated PCL scaffolds. Polycaprolactone (PCL) is a clinically used polymer widely used in orthopaedic and soft tissue applications. Scaffolds were passively coated with GFOGER peptide (SEQ ID NO:1) (20 μg/ml) as described above. Bone formation was assessed non-invasively via micro-computed tomography (micro-CT) at 4 and 12 weeks. […] No differences in bone formation were observed between PCL and empty defects.

The test system of assay [3] is bone marrow stromal cells. Briefly: Calcium incorporation (matrix mineralization) assay. Type of assay: cell-based, rat. Conditions: 14 days in culture; vs untreated titanium. As to the method: Primary bone marrow stromal cells were harvested from the femora of young adult male Wistar rats in accordance with an IACUC-approved protocol. After excision, hindleg femora and tibiae were cleared of soft tissue and rinsed in growth medium (α-minimal essential medium supplemented with 10% fetal bovine serum, 1% penicillin-streptomycin, and 0.3 μg/ml amphotericin B). The ends of the long bones were then removed and the marrow space was flushed with culture medium (3-5 ml), using a syringe with an 18-gauge needle. Marrow isolates were pooled, centrifuged, resuspended in growth medium, and seeded for adhesion-dependent selection on tissue culture polystyrene dishes. Non-adherent hematopoietic cells were removed during subsequent medium exchanges, which occurred every other day. Cells were subcultured every two days according to standard techniques. For in vitro osteogenic assays, cells were seeded at 10,000 cells/cm^2 in growth medium. After 24 h, cultures were maintained in osteogenic medium consisting of growth medium supplemented with 50 μg/ml L-ascorbic acid and 3 mM sodium β-glycerophosphate.
Calcium content was determined by dissolving mineralized deposits with 1 N acetic acid overnight. […] The absorbance of the resulting samples was measured at 650 nm and compared to a linear standard curve of CaCl2 in 1 N acetic acid.

The next assay deals with αvβ3 integrin. The experiment in a line: Integrin binding by cross-linking/extraction/reversal technique. Format: cell-based, rat. Conditions: equimolar tethered brushes; vs FNIII7-10 support. As to the method: as §1

The record followed here is patent US8445006B2, “Biomolecular coating for implants” (Georgia Tech Research Corporation, priority 2006, dated 2013).

As to “FNIII7-10: monobiotinylated recombinant fibronectin fragment spanning the 7-10th type III repeats of fibronectin; α5β1 integrin ligand”, the “cell proliferation rate (BrdU incorporation)” value in the assay on MC3T3-E1 cells is “two-fold increase”. The “FAK tyrosine-861 phosphorylation” value with FAK (among both peptide-tethered surfaces) is given as “phosphorylated at similar levels”. In the assay with FAK (maximum peptide densities, vs RGD-tethered surface), the “FAK tyrosine-397 phosphorylation” value is “increased almost threefold”. Also, in the assay with FAK (vs RGD-functionalized support), the “FAK tyrosine-576 phosphorylation” value is recorded as “significantly higher”. For the same substance, the “HFN7.1 binding (biological activity)” value in assay [1] was “equivalent functional activity”. Besides, the “bound α5β1 integrin” value in the assay with α5β1 integrin is “significantly higher levels of bound α5β1 integrin”.
As to “GGYGGGPC(GPP)5GFOGER(GPP)5GPC [GFOGER peptide]”, the “bone formation (micro-CT)” value in assay [2] is listed as “enhancement in bone formation”. Besides, the calcium-based mineral deposition result in assay [3] is “three-fold enhancement”.
Take “GRGDSPC [RGD peptide, linear RGD oligopeptide purchased from BACHEM; primarily supports αvβ3-mediated adhesion, reference compound]”: in the assay with αvβ3 integrin, the “bound αvβ3 integrin” value is listed as “higher levels of bound αvμ3”.
